Biological target: T1, PedE (Pseudomonas putida, UniProt Q88JH5)
T1 construct: C-terminal 6xHis tag, expressed in E. coli BL21(DE3), purified by IMAC, PQQ/Ca2+-dependent periplasmic enzyme
T1 sequence (Q88JH5 34-631): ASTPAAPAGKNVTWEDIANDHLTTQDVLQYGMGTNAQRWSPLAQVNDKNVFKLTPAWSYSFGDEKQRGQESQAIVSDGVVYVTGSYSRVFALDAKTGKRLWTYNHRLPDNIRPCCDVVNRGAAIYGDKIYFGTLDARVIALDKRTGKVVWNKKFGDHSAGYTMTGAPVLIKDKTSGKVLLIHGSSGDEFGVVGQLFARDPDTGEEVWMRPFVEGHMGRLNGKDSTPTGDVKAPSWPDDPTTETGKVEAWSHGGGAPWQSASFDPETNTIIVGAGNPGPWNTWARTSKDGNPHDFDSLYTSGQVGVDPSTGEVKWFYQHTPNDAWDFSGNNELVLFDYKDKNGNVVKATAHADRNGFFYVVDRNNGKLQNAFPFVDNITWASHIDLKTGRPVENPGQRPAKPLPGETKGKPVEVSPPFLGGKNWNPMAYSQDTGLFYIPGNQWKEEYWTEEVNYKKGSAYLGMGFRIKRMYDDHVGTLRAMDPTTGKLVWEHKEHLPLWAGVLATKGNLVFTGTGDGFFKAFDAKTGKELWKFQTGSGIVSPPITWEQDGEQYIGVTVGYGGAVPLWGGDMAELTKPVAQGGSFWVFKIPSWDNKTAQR
Assay: residual activity after […] h at […]°C, apo vs PQQ/CaCl2-reconstituted enzyme
Format: biochemical
Details: reconstitution with 10 μM PQQ and 10 mM CaCl2, Tris pH 7.5; ethanol 10 mM as substrate

SMILES: O=C(O)c1cc(C(=O)O)c2c(n1)C(=O)C(=O)c1cc(C(=O)O)[nH]c1-2 [PQQ]
- residual activity after 1 h at 45°C, apo vs PQQ/CaCl2-reconstituted enzyme: purified apo‐form of PedE is much less thermostable compared with the PQQ reconstituted form
